Measured values reported in patent publication US8809274B2, “Adhesive hemostatic agent based on porcine atelocollagen and method for production thereof” (Dalim Biotech Co., Ltd., priority 2008, dated 2014).

System: blood
Assay: Effect of tranexamic acid on blood coagulation (Example 5)
Type: cell-based
Conditions: Experimental Condition F: 0.25 mL of 0.02/0.05/0.1 wt % tranexamic acid in distilled water alone; 0.5 mL blood
Procedure: While tranexamic acid, a hemostatic agent with antifibrinolytic activity, was used under the above-described conditions, the time taken to induce blood clots was monitored.
—Experimental Condition A • 1. 0.5 mL of blood was placed on each Petri-dish. • 2. A mixture of 0.25 mL of the solution of Example 1 and 0.25 mL of the 1 wt % calcium chloride solution containing 0.71 wt % of DOPA and 0.02 wt % of tranexamic acid was added to the Petri-dish of 1. • 3. A mixture of 0.25 mL of the solution of Example 1 and 0.25 mL of the 1 wt % calcium chloride solution containing 0.71 wt % of DOPA and 0.05 wt % of tranexamic acid was added to the Petri-dish of 1. • 4. A mixture of 0.25 mL of the solution of Example 1 and 0.25 mL of the 1 wt % calcium chloride solution containing 0.71 wt % of DOPA and 0.1 wt % of tranexamic acid was added to the Petri-dish of 1. • 5. Reactions in the Petri-dishes were observed.
—Experimental Condition B • 1. 0.5 mL of blood was placed on each Petri-dish. • 2. A mixture of 0.25 mL of the solution of Example 1 and 0.25 mL of the 1.5 wt % calcium chloride solution containing 0.67 wt % of DOPA and 0.02 wt % of tranexamic acid was added to the Petri-dish of 1. • 3. A mixture of 0.25 mL of the solution of Example 1 and 0.25 mL of the 1.5 wt % calcium chloride solution containing 0.67 wt % of DOPA and 0.05 wt % of tranexamic acid was added to the Petri-dish of 1. • 4. […]

With `NC[C@H]1CC[C@H](C(=O)O)CC1` [tranexamic acid] as the compound, how does the blood coagulation rate read?
Its blood coagulation rate is “at lower rates than when in the presence of the esterified atelocollagen”.
